The subject of this assay is tumour cell lines. The assay can be described thus: Propidium iodide (PI) uptake test, cell viability. The assay is classed as cell-based, human. The settings on record: treated for 4 days; data not shown. On the procedure:
PI uptake tests were performed to assess cell viability. Cells suspended in culture medium were incubated for 5 min with 3 µg/ml PI and analysed by flow cytometry. […] At least 10,000 events were acquired on a logarithmic scale from each sample.
Based on the results reported above we selected treatment concentrations of 5 µM and 10 µM for subsequent experiments. […] To evaluate whether the decreased cell growth was due to cell cycle arrest, cell death, or both, flow cytometry assays to assess cell viability and cell cycle behavior were performed. […] Flow cytometry measurements of DNA content and side scatter confirmed that the main cause of cell growth inhibition after 2 or 4 days of 072RB treatment at 5, 10 or 30 µM respectively, was cell death rather than cell cycle perturbation, as shown in Figure 3A for U937 cells. Three main cell populations can be observed in bivariate plots of side scatter (SSC) vs. DNA content (PI fluorescence), one with low SSC and normal DNA content (that accounts for cells "alive" in culture), another with high SSC and normal DNA content (cells undergoing "an early stage of apoptosis ") and another one with lower PI fluorescence (cells at "a late stage of apoptosis" and debris). The respective DNA histograms (projection of the dot plots on the x-axis) are reported for each plot. […]

Where a SMILES comes first, the peptide text is derived from it. [ ]: non-standard residue; d: D form. Aib = CC(C)(N)C(=O)O

Turning to `CC[C@H](C)[C@H](NC(=O)[C@H](CCCNC(=N)N)NC(=O)[C@H](CCCNC(=N)N)NC(=O)[C@H](CC(C)C)NC(=O)[C@H](CCC(=O)O)NC(=O)[C@H](CCC(N)=O)NC(=O)C(C)(C)NC(=O)[C@@H](NC(=O)[C@H](Cc1ccc(O)cc1)NC(=O)[C@@H](NC(=O)[C@H](CCC(=O)O)NC(=O)[C@@H]1CCCN1C(=O)[C@H](CCCNC(=N)N)NC(=O)[C@H](CCSC)NC(=O)[C@@H](N)CC(=O)O)[C@@H](C)CC)[C@@H](C)CC)C(=O)NCC(=O)N[C@@H](CC(=O)O)C(=O)N[C@@H](C)C(=O)N[C@@H](Cc1ccccc1)C(=O)N[C@@H](CC(N)=O)C(=O)NC(C)(C)C(=O)N[C@@H](Cc1ccc(O)cc1)C(=O)N[C@@H](CCCCN)C(=O)N[C@@H](CCCCN)C(=O)N[C@@H](Cc1c[nH]c2ccccc12)C(=O)N[C@@H](CCCCN)C(=O)N[C@@H](CCSC)C(=O)N[C@@H](CCCNC(=N)N)C(=O)N[C@@H](CCCNC(=N)N)C(=O)N[C@@H](CC(N)=O)C(=O)N1CCC[C@H]1C(=O)N[C@@H](Cc1ccccc1)C(=O)N[C@@H](Cc1c[nH]c2ccccc12)C(=O)N[C@H](C(=O)N[C@@H](CCCCN)C(=O)N[C@H](C(=O)N[C@@H](CCC(N)=O)C(=O)N[C@@H](CCCNC(=N)N)C(N)=O)[C@@H](C)CC)[C@@H](C)CC` [Peptide 072RB] (H-DMRPEIYI[Aib]QELRRIGDAFN[Aib]YKKWKMRRNPFWIKIQR-NH2; N-terminus and C-terminus assumed), the “cell death (PI uptake test)” value is reported as “dose-dependent cell death”.

The values above are taken from patent publication EP1985629A1, “Pro-apoptotic molecules and therapeutic uses thereof” (UNIVERSITA DEGLI STUDI DI GENOVA, priority 2007, dated 2008).
